# Measurements published in PubChem BioAssay AID2743 (NMMLSC, 2010).
# Activity calls are given as the source filed them.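 The calls were made as follows: active = fitted half-maximal concentration for change in GFP expression of 33 µM or less; inactive = the rest.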
# Experiment: concentration-dependent AGP1-GFP change, TOR pathway – cell-based, flow cytometry, S. cerevisiae, MLPCN hits, dose response (AID 2743)
# Conditions: S. cerevisiae AGP1-GFP strain, flow cytometry GFP, 3 h; at 33 µM (top of the series)
row,Structure (SMILES),GFP fluorescence (kMESF)
1,CC(=O)Oc1oc(-c2ccccc2)nc1C=Nc1ccc(N(C)C)cc1,43.2 kMESF (inactive)
2,O=C(Nc1ccc(Cl)cc1Cl)c1cccc(N2C(=O)C=CC2=O)c1,41.1 kMESF (inactive)
3,Cc1ccc(C(=O)O)cc1N=Cc1cc(Br)cc(Br)c1O,27.3 kMESF (inactive)
4,Oc1c(CN2CCN(c3ccccc3)CC2)cc(Br)c2cccnc12,39 kMESF (inactive)
5,Cc1ccc2nc(Cl)c3nnnn3c2c1,33.8 kMESF (inactive)
6,Oc1c(CN2CCCCC2)cc(Br)c2cccnc12,46.9 kMESF (inactive)
7,Cc1ccc2[nH]cc(/C=C/c3cc[n+](C)cc3)c2c1,48.3 kMESF (inactive)
8,COc1cccc(N=Nc2ccc(O)c3ncccc23)c1,45.7 kMESF (inactive)
9,CC(=O)Oc1ccc(N2C(=O)C3C4C=CC(O4)C3C2=O)cc1 (configuration not stated),45.2 kMESF (inactive)
10,O=C(c1ccccn1)c1conc1C(=O)c1ccc(Br)cc1,39.4 kMESF (inactive)
11,CCOC(=O)CS(=O)(=O)c1nc(-c2ccc(F)cc2)cc(C(F)(F)F)n1,50.7 kMESF (inactive)
12,Cc1ccc(NC(=O)c2nc(S(=O)(=O)Cc3ccccc3)ncc2Cl)cc1,45.8 kMESF (inactive)
13,Oc1ccc2ccccc2c1/C=N/Nc1nnc(-c2ncc[nH]2)c2ccccc12,21.8 kMESF (inactive)
14,CSc1nnc2c3cc(F)ccc3n(C)c2n1,25.3 kMESF (inactive)
15,O=C1NC(=O)C(=Cc2ccc(-c3ccc(Cl)cc3)o2)C(=O)N1,22.3 kMESF (inactive)
16,CC(=O)N(\C=C/C=C/C=C1\Sc2ccccc2C1=O)c1ccccc1,38.7 kMESF (inactive)
17,CCc1nc2ccccc2c(=O)n1NC(=O)c1c(O)c2ccccc2n(CC)c1=O,18.7 kMESF (inactive)
18,c1ccc(-c2cccc(-c3ccccn3)n2)nc1,38.3 kMESF (inactive)
19,COc1cccc(/C=C/C(=O)c2c(O)cc(C)oc2=O)c1O,43.2 kMESF (inactive)

row,Structure (SMILES),GFP fluorescence (kMESF)
1,Cc1ccc(N2C(=O)C(Cl)=C(Nc3c(C)n(C)n(-c4ccccc4)c3=O)C2=O)cc1,35 kMESF (inactive)
2,CCN(CC)C(=S)SSC(=S)N(CC)CC,37.5 kMESF (inactive)
3,Cc1cc(C)c(OCC(=O)Nc2nc(-c3ccccn3)cs2)c(C)c1,28.8 kMESF (inactive)
4,Cc1nn2c(NCc3ccccn3)c3c(nc2c1-c1ccccc1)CCC3,40.6 kMESF (inactive)
5,Oc1ccc2ccccc2c1N=Nc1nccs1,43.4 kMESF (inactive)
6,Cc1ccc(C2=NN(S(C)(=O)=O)C(c3ccc4c(c3)OCO4)C2)cc1 (configuration not stated),44.1 kMESF (inactive)
7,COCCN1C(=O)/C(=C/c2ccc(N3CCCC3)cc2C)SC1=S,44.5 kMESF (inactive)
8,CCCc1cc(=O)oc2cc(C)cc(OCC(=O)NC3CC3)c12,41 kMESF (inactive)
9,CN(C)C(=O)Oc1ccnc2cc(Cl)ccc12,42.3 kMESF (inactive)
10,CC1(C)C[C@H]2C=C(C=O)[C@]3(C=O)C[C@]3(C)[C@H]2C1,36.7 kMESF (inactive)
11,CC(=O)Nc1ncnc2c1c(-c1ccc(Cl)cc1)nn2C(C)(C)C,30.3 kMESF (inactive)
12,CCc1ccc2c(c1)/C(=C/C(=O)c1cccs1)C(=O)N2,42.4 kMESF (inactive)
13,COc1ccc(C(=O)/C=C2/C(=O)Nc3ccccc32)cc1OC,43.9 kMESF (inactive)
14,COc1ccc(OCC(=O)NNC(=S)NC(=O)C2CCCCC2)cc1,35.6 kMESF (inactive)
15,O=[N+]([O-])c1cc(CN2CCN(c3ccccc3)CC2)c(O)c2ncccc12,27 kMESF (inactive)
16,O=[N+]([O-])c1cc(Cl)cc(/C=N\Nc2ccccn2)c1O,30.3 kMESF (inactive)
17,Nc1nc2ncc(CNc3ccc(C(=O)N[C@@H](CCC(=O)O)C(=O)O)cc3)nc2c(=O)[nH]1,29.1 kMESF (inactive)
18,Cc1c(C(=O)Nc2nc(-c3ccccn3)cs2)oc2ccccc12,35.6 kMESF (inactive)
